Read-outs that look alike come from different tables or passages of the source.
What was measured:
[1] = target: T1, p70S6K (Homo sapiens, UniProt P23443, T412E); experiment: p70S6 Kinase Assay (Luciferase-Coupled Chemiluminescent Kinase assay, LCCA); format: biochemical; details: 5 μM ATP
T1 construct: human p70S6 kinase domain residues 1-421, containing a T412E mutation; made in house
How it was run: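 Luciferase-coupled chemiluminescence measured percent ATP remaining after the 2 h kinase reaction at ambient temperature, with ATP near the kinase's KM. Ten inhibitor concentrations were tested. IC50 was obtained from a Hill-equation fit.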

[2] = target: T2, Akt1 (Homo sapiens, UniProt P31749); experiment: Akt1 Kinase Assay (Luciferase-Coupled Chemiluminescent Kinase assay, LCCA); format: biochemical; details: human Akt1 kinase domain residues R144-A480, activated with PDK1; 1 μM ATP; read-out: Akt-1 IC50
T2 construct: made in house
T2 sequence (P31749 144-480): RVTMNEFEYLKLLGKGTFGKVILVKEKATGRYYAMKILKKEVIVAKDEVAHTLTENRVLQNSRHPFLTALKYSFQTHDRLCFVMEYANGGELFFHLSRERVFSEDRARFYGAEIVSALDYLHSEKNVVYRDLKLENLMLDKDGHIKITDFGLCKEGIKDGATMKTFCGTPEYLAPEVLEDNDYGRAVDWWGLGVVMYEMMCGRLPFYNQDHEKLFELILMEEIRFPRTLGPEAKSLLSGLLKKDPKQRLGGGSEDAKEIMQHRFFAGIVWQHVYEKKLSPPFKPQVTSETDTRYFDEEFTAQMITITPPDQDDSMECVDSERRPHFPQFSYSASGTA
Description: Kinase activity and compound inhibition are investigated using one or more of the three assay formats described below. The ATP concentrations for each assay are selected to be close to the Michaelis-Menten constant (KM) for each individual kinase. Dose-response experiments are performed at 10 different inhibitor concentrations in a 384-well plate format. The data are fitted to four-parameter equation (2) below; where Y is the observed signal, X is the inhibitor concentration, Min is the background signal in the absence of enzyme (0% enzyme activity), Max is the signal in the absence of inhibitor (100% enzyme activity), IC50 is the inhibitor concentration at 50% enzyme inhibition and H represents the empirical Hill's slope to measure the cooperativity. Typically H is close to unity. Y=Min+(Max−Min)/(1+(X/IC50)^H) Equation (2) p70S6 Kinase Assay
Biochemical activity of Akt1 kinase was assessed using a Luciferase-Coupled Chemiluminescent Kinase assay (LCCA) format. Kinase activity was measured as the percent ATP remaining following the kinase reaction. Remaining ATP was detected by luciferase-luciferin-coupled chemiluminescence. Specifically, the reaction was initiated by mixing test compounds, 1 μM ATP, 5 μM crosstide peptide and 1.3 nM Akt1 (baculovirus expressed human Akt1 kinase domain residues R144-A480, activated with PDK1) in a 20 uL assay buffer (20 mM Tris-HCL pH 7.5, 10 mM MgCl2, 0.01% Triton X-100, 1 mM DTT, 3 mM MnCl2). The mixture is incubated at ambient temperature for 3 hours after which 20 μL luciferase-luciferin mix is added and the chemiluminescent signal read using a Wallac Victor2 reader. The luciferase-luciferin mix consists of 50 mM HEPES, pH 7.8, 8.5 μg/mL oxalic acid (pH 7.8), 5 (or 50) mM DTT, 0.4% Triton X-100, 0.25 mg/mL coenzyme A, 63 uM AMP, 28 μg/mL luciferin and 40,000 units/mL luciferase.

[3] = human p70S6 kinase domain residues 1-421, T412E, read-out: p70S6K IC50

T1 sequence (P23443 1-421 T412E): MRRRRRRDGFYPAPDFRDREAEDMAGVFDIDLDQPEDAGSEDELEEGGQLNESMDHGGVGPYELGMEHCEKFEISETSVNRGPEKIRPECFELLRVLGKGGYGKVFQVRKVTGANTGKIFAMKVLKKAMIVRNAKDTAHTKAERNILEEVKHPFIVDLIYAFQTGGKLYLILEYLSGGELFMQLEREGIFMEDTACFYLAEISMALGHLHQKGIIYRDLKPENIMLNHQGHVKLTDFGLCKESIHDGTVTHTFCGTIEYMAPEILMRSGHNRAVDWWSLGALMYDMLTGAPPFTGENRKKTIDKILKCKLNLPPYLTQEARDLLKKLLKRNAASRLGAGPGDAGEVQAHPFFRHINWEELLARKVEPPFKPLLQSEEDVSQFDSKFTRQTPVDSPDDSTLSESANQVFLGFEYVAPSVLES

IC50 [1, 3] [nM]	IC50 [2] [nM]	SMILES	IC50 ([1]; p70S6K IC50, human p70S6 kinase domain residues 1-421, T412E) [nM]
> 2000	> 2000	CCOc1nc(N)nc(N[C@H](CCCCN)C(=O)Nc2cccc(C(F)(F)F)c2)c1C#N [Example 196, N~2~-[2-amino-5-cyano-6-(ethyloxy)pyrimidin-4-yl]-N-[3-(trifluoromethyl)phenyl]-D-lysinamide]	
50 to 500	> 2000	Nc1nc(Cl)c(C=O)c(SCC(=O)Nc2cccc(C(F)(F)F)c2)n1 [Example 43, 2-[(2-amino-6-chloro-5-formylpyrimidin-4-yl)thio]-N-[3-(trifluoromethyl)phenyl]acetamide]	
50 to 500	> 2000	Nc1nc(Cl)cc(SCC(=O)Nc2cccc(C(F)(F)F)c2)n1	
> 2000	> 2000	CSc1nc(N)nc(N[C@H](CCCCN)C(=O)Nc2cccc(C(F)(F)F)c2)c1C#N [Example 195]	
> 2000	> 2000	CCOc1nc(N)nc(N[C@@H](C)C(=O)Nc2cc(C(=O)NCCN(C)C)cc(C(F)(F)F)c2)c1C#N [Example 160, 3-({N-[2-amino-5-cyano-6-(ethyloxy)pyrimidin-4-yl]-L-alanyl}amino)-N-[2-(dimethylamino)ethyl]-5-(trifluoromethyl)benzamide]	
< 50	> 2000	CSc1nc(N)nc(SCC(=O)Nc2nc3ccccc3s2)c1C#N [Example 23, 2-{[2-amino-5-cyano-6-(methylthio)pyrimidin-4-yl]thio}-N-1,3-benzothiazol-2-ylacetamide]	
> 2000	> 2000	CSc1nc(N)nc(N(CC(=O)Nc2cccc(C(F)(F)F)c2)CC2CCOCC2)c1C#N [Example 101, N^2-[2-amino-5-cyano-6-(methylthio)pyrimidin-4-yl]-N^2-(tetrahydro-2H-pyran-4-ylmethyl)-N-[3-(trifluoromethyl)phenyl]glycinamide]	
> 2000	> 2000	CCOc1nc(N)nc(N[C@@H](CCCNC(N)=O)C(=O)Nc2cccc(C(F)(F)F)c2)c1C#N [Example 194]	
> 2000	> 2000	COC(=O)c1cc(NC(=O)[C@H](C)Nc2nc(N)nc(SC)c2C#N)cc(C(F)(F)F)c1 [Example 112, methyl 3-({N-[2-amino-5-cyano-6-(methylthio)pyrimidin-4-yl]-L-alanyl}amino)-5-(trifluoromethyl)benzoate]	
500 to 2000	> 2000	CSc1nc(N)nc(N[C@@H](CCCNC(N)=O)C(=O)Nc2cccc(C(F)(F)F)c2)c1C#N [Example 147, N~5~-(aminocarbonyl)-N~2~-[2-amino-5-cyano-6-(methylthio)pyrimidin-4-yl]-N-[3-(trifluoromethyl)phenyl]-L-omithinamide]	
> 2000	> 2000	CCOc1nc(N)nc(N(C)[C@@H](C)C(=O)Nc2cccc(OC(F)(F)F)c2)c1C#N [Example 172, N~2~-[2-amino-5-cyano-6-(ethyloxy)pyrimidin-4-yl]-N~2~-methyl-N-{3-[(trifluoromethyl)oxy]phenyl}-L-alaninamide]	
> 2000	> 2000	CSc1ncc(C#N)c(NCC(=O)Nc2cccc(C(F)(F)F)c2)n1 [Example 100, N^2-[5-cyano-2-(methylthio)pyrimidin-4-yl]-N-[3-(trifluoromethyl)phenyl]glycinamide]	
50 to 500		CSc1nc(N)nc(OCC(=O)Nc2cccc(C(F)(F)F)c2)n1 [Example 47, 2-{[4-amino-6-(methylthio)-1,3,5-triazin-2-yl]oxy}-N-[3-(trifluoromethyl)phenyl]acetamide]	
> 2000		CSc1nc(N)nc(N(C)CC(=O)Nc2cccc(C)c2)c1C#N [Example 109, N^2-[2-amino-5-cyano-6-(methylthio)pyrimidin-4-yl]-N^2-methyl-N-(3-methylphenyl)glycinamide]	
500 to 2000		CSc1nc(N)nc(SCC(=O)Nc2cccc(C(F)(F)F)c2C)c1C#N [Example 53, 2-{[2-amino-5-cyano-6-(methylthio)pyrimidin-4-yl]thio}-N-[2-methyl-3-(trifluoromethyl)phenyl]acetamide]	
> 2000		C[C@H](Nc1nc(N)nc(N[C@@H](C)C(=O)Nc2cccc(C(F)(F)F)c2)c1C#N)C(=O)Nc1cccc(C(F)(F)F)c1 [Example 108, 2-{2-amino-5-cyano-6[1-(3-trifluoromethyl-phenylcarbamoyl)-1S-ethylamino]-pyrimidin-4-ylamino}N-(3-trifluoromethyl-phenyl)-2S-propionamide]	
> 2000		CCOc1nc(N)nc(N[C@@H](CN2CCOCC2)C(=O)Nc2cccc(C(F)(F)F)c2)c1C#N [Example 193, N~2~-[2-amino-5-cyano-6-(ethyloxy)pyrimidin-4-yl]-3-morpholin-4-yl-N-[3-(trifluoromethyl)phenyl]-L-alaninamide]	
> 2000		C[C@H](Nc1nc(N)nc(OCCN(C)C)c1C#N)C(=O)Nc1cccc(C(F)(F)F)c1 [Example 102, N^2-(2-amino-5-cyano-6-{[2-(dimethylamino)ethyl]oxy}pyrimidin-4-yl)-N-[3-(trifluoromethyl)phenyl]-L-alaninamide]	
500 to 2000		COc1ccc(C(F)(F)F)cc1NC(=O)CSc1nc(N)nc(SC)c1C#N [Example 54, 2-{[2-mino-5-cyano-6-(methylthio)pyrimidin-4-yl]thio}-N-[2-(methyloxy)-5-(trifluoromethyl)phenyl]acetamide]	
500 to 2000		CSc1nc(N)nc(N2CCC[C@H]2C(=O)Nc2cccc(C(F)(F)F)c2)c1C#N [Example 67, (S)-1-[2-amino-5-cyano-6-(methythio)pyrimidin-4-yl]-N-[3-(trifluoromethyl)phenyl]prolinamide]	
		CSc1nc(N)nc(O[C@H](C)C(=O)Nc2cccc(C(F)(F)F)c2)c1C#N [Example 68, (2R)-2-{[2-amino-5-cyano-6-(methylthio)pyrimidin-4-yl]oxy}-N-[3-(trifluoromethyl)phenyl]propanamide]	500 to 2000
> 2000		CSc1nc(N)nc(N[C@@H](CCCNC(=N)N)C(=O)Nc2cccc(C(F)(F)F)c2)c1C#N [Example 117, N^2-[2-amino-5-cyano-6-(methylthio)pyrimidin-4-yl]-N-[3-(trifluoromethyl)phenyl]-L-argininamide]	
> 2000		CCOc1nc(N)nc(NNC(=O)Nc2cccc(C(F)(F)F)c2)c1C#N [Example 127, 2-[2-amino-5-cyano-6-(ethyloxy)pyrimidin-4-yl]-N-[3-(trifluoromethyl)phenyl]hydrazinecarboxamide]	
500 to 2000		Nc1nc(NCC(=O)Nc2cccc(C(F)(F)F)c2)c2cn[nH]c2n1 [Example 57, N^2-(6-amino-1H-pyrazolo[3,4-d]pyrimidin-4-yl)-N-[3-(trifluoromethyl)phenyl]glycinamide]	
> 2000		CCOc1nc(N)nc(N[C@@H](C)C(=O)Nc2cc(C(=O)N3CCN(C)CC3)cc(C(F)(F)F)c2)c1C#N [Example 157, N~2~-[2-amino-5-cyano-6-(ethyloxy)pyrimidin-4-yl]-N-[3-[(4-methylpiperazin-1-yl)carbonyl]-5-(trifluoromethyl)phenyl]-L-alaninamide]	
> 2000		CSc1nc(N)nc(N[C@@H](C)c2nc3ccc(C(F)(F)F)cc3[nH]2)c1C#N [Example 107, 2-amino-4-(methylthio)-6-({(1S)-1-[6-(trifluoromethyl)-1H-benzimidazol-2-yl]ethyl}amino)pyrimidine-5-carbonitrile]	
> 2000		N#Cc1cnc(N2CCOCC2)nc1NCC(=O)Nc1cccc(C(F)(F)F)c1 [Example 76]	

From patent publication US7816353B2 (Exelixis, Inc., priority 2003, dated 2010)
